≈ marks a conversion by molar mass, not a printed value. Like-named read-outs stand apart in the source and are kept apart here.
Legend:
[1] = tested on: Enterobacter spp.; assay: Broth Macro Dilution Test, MIC and MBC; format: cell-based; conditions: antibiotic alone
Source text: (§1) This was done by estimation of the Minimum Inhibitory Concentration (MIC) and Minimum Bactericidal Concentration (MBC) on the selected isolates by a Broth Macro Dilution Test.
(§2) While conducting these tests, the guidelines given by the National committee of Clinical Laboratory Standards 1995 protocols were employed. Cation Supplemented Mueller Hinton Broth was used as medium for all organisms excepting for β haemolytic streptococci for which, Todd Hewit's Broth was used as medium.
(§3) The following concentrations of antibiotics were tested to determine MIC and MBC.
(§4) A minimum inhibitory concentration is the lowest level of antibiotic needed to cause an inhibition to bacterial growth in culture medium whereas, the minimum bactericidal concentration is the lowest concentration of antibiotic to achieve a 100% killing of bacteria. Thus, these two values are the practical indices of intensity of bacterial resistance to a given antibiotic. On the other hand, a break-even point of any antibiotic indicates the attainable blood levels after an administration of full dose, in human/animal body. Thus, this point indicates the practical dosage of administering any given antibiotic effectively and beyond this point, even if an antibiotic is found to act effectively in experimental situation—such dose cannot be administered in a clinical situation.

[2] = tested on: Escherichia coli; assay: Broth Macro Dilution Test, MIC and MBC; format: cell-based; conditions: resistant to Ciprofloxacin, antibiotic alone, read-out: minimum bactericidal concentration (MBC)
Source text: as §1, §2, §3, §4

[3] = tested on: Klebsiella pneumoniae; assay: Broth Macro Dilution Test, MIC and MBC; format: cell-based; conditions: Klebsiella pneumoniae, antibiotic alone
Source text: as §1, §2, §3
(§5) Co-trimoxazole (Sulpharnethoxazole/Trimethoprim/μg/μg per ml)
as §4

[4] = tested on: Salmonella senftenberg; assay: Broth Macro Dilution Test, MIC and MBC; format: cell-based; conditions: Salmonella enterica, Example 13: strain from burn wound swab culture, antibiotic alone
Source text: as §1, §2, §3, §5, §4

[5] = tested on: Staphylococcus aureus; assay: Broth Macro Dilution Test, MIC and MBC; format: cell-based; conditions: Example 12: strain from non-healing burn wound swab culture, antibiotic alone
Description: as §1
(§6) Cation Supplemented Mueller Hinton Broth was used as medium for all organisms excepting for β haemolytic streptococci for which, Todd Hewit's Broth was used as medium.
as §3, §4

[6] = tested on: Enterobacter spp.; assay: Broth tube test of NE with antibiotic at break point, percentage of killing; format: cell-based; conditions: for bacterial growth in control tubes: NE and antibiotic added individually; for bactericidal effect: antibiotic 4 μg/ml (break point) combined with NE 125, 250, 500, 1000 μg/ml
Description: (§7) Since all the study isolates are resistant to the concerned antibiotics, each antibiotic is taken at its breakpoint concentration, (the highest serum concentration of that particular antibiotic reached after the maximum therapeutic dose in-vivo). The break points for various antibiotics are as follows:
(§8) Preparation of Neem Extract: Stock solution of neem extract (1 mg/ml) was prepared, filtered and autoclaved. It was used in 4 concentrations—1000 μg/ml; 500 μg/ml; 250 μg/ml; 125 μg/ml.
(§9) A set of four tubes with variable concentrations of the extract is prepared and to each of these tubes, the break point concentration of antibiotics is added. Now, these sets are inoculated with the study isolate in the same manner as per the broth dilution procedure. A set of six controls is inoculated with each isolate—in parallel with the main experiment.
(§10) 2. Only antibiotic solution
(§11) 3. Medium and antibiotic solution with inoculum
(§12) 5. Only Neem extract at 250 μg/ml
(§13) 6. Medium with Neem Extract and inoculum
(§14) Reading the test All the tests and control tubes are observed for visible turbidity of growth first. Since all the study isolates were earlier confirmed to be resistant to the antibiotics, the bacterial growth is expected at the breakpoint concentration of the antibiotic. Any reduction in the turbidity as compared to the control tube no. 3 is noted as a possible additive or synergistic effect of the neem extract with the antibiotic. In absence of such effect, the tubes may show growth matching with the control no. 4.
(§15) In case of a positive result, further sub-culturing was taken up, on solid media for colony counts with a calibrated loop. The colony counts could be noted by a semi quantitative method as 101 to 10^5 CFU/ml (Colony forming units). This is finally expressed as the percentage of killing as compared to the colony count obtained with control no. 4. Usually control tubes no. 3, 4 and 6 had similar colony counts.

[7] = tested on: Escherichia coli; assay: as above; format: cell-based; conditions: for bacterial growth in control tubes: NE and antibiotic added individually; for bactericidal effect: antibiotic 4 μg/ml (break point) combined with NE 125, 250, 500, 1000 μg/ml
Description: as §7, §8, §9, §10, §11, §12, §13, §14, §15

[8] = tested on: Klebsiella pneumoniae; assay: as above; format: cell-based; conditions: for bacterial growth in control tubes: NE and antibiotic added individually
Description: as §7, §8, §9, §10, §11, §12, §13, §14, §15

[9] = tested on: Salmonella senftenberg; assay: as above; format: cell-based; conditions: Example 13 strain
Description: as §7, §8, §9, §10, §11, §12, §13, §14, §15

[10] = tested on: Staphylococcus aureus; assay: as above; format: cell-based; conditions: Example 12 strain
Description: as §7, §8, §9, §10, §11, §12, §13, §14, §15

[11] = highest serum concentration reached after the maximum therapeutic dose in-vivo; cited from earlier work
[12] = tested on: β-haemolytic streptococci; assay: Broth Macro Dilution Test, MIC and MBC; format: cell-based; conditions: antibiotic alone, read-out: minimum inhibitory concentration (MIC)
Description: as §1, §6, §3, §4

[13] = tested on: β-haemolytic streptococci; assay: Broth tube test of NE with antibiotic at break point, percentage of killing; format: cell-based; conditions: for bacterial growth in control tubes: NE and antibiotic added individually
Description: as §7, §8, §9, §10, §11, §12, §13, §14, §15

[14] = tested on: Staphylococcus aureus; assay: Agar Dilution Method of Sensitivity testing, NE alone and NE + antibiotic; format: cell-based; conditions: for Growth Patterns after addition of NE: no. of cultures +++ (growth) / Growth Patterns after addition of NE: no. of cultures −−− (inhibition of growth): resistant S. aureus cultures, 48 hours
Description: Two kinds of investigations were carried-out using these bacterial isolates—using an Agar Dilution Method of Sensitivity testing.
i) To ascertain whether, NE can work as an antibacterial substance on its own. For this purpose, a stock-solution of NE was prepared and was sterilized as described in the preliminary experiments.
ii) This stock-solution was dispensed into the culture medium (Mueller Hinton Agar) so as to provide while; the medium was in liquid form. Four different concentrations of NE, viz.
iii) This medium was poured into petri dishes and allowed to solidify. Resistant cultures were inoculated on to these plates and after incubation for 48 hours, the growth patterns were assessed.
iv) The experiments were run in triplicate, for each concentration—as per standard practices of microbiological testing procedures.
i) The culture medium (Mueller Hinton Agar) was melted and distributed into a number of test tubes.
ii) The stock solution of NE was dispensed into these test tubes in four different concentrations viz.
iii) In the same medium, one of the antibiotics under investigation was also added so as to provide a variable concentration (at break-even point concentration) as described below:
iv) The culture medium containing NE extract+the antibiotic were poured into petri dishes and allowed to solidify.
v) The resistant bacterial strains were inoculated onto these plates, incubated for 48 hours and the growth patterns were studied on each plate.
These cultures were obtained various clinical samples, such as sputum, non-healing infected wounds, throat swabs etc.

[15] = Example 11: isolate from Endotracheal catheter tip culture
[16] = antibiotic at break-even point + NE 125 μg/mL
[17] = antibiotic at break-even point + NE 250 μg/mL
[18] = antibiotic at break-even point + NE 500 μg/mL
[19] = antibiotic at break-even point + NE 1000 μg/mL

O=C(O)c1cn(C2CC2)c2cc(N3CCNCC3)c(F)cc2c1=O [Ciprofloxacin]
MBC ([1]; Enterobacter, Example 10: isolate from Endotracheal Catheter Tip culture, read-out: minimum bactericidal concentration (MBC)): > 128 µg/mL | MIC ([1]; Enterobacter, Example 10: isolate from Endotracheal Catheter Tip culture, read-out: minimum inhibitory concentration (MIC)): 32 µg/mL (≈ 96.6 µM) | minimum bactericidal concentration (MBC) [1, 15]: > 128 µg/mL | minimum inhibitory concentration (MIC) [1, 15]: 32 µg/mL (≈ 96.6 µM) | MBC ([2]; Example 1: isolate from wound infection): 64 µg/mL (≈ 193 µM) | MBC ([2]; Example 2: isolate from endotracheal catheter tip culture): > 128 µg/mL | MBC ([3]; Example 3: strain from non-healing burn wound, read-out: MBC): > 64 µg/mL | MIC ([3]; Example 3: strain from non-healing burn wound, read-out: MIC): 16 µg/mL (≈ 48.3 µM) | MBC ([3]; Example 4: strain from wound swab culture, read-out: MBC): > 128 µg/mL | MIC ([3]; Example 4: strain from wound swab culture, read-out: MIC): 32 µg/mL (≈ 96.6 µM) | MBC ([3]; Example 5: isolate from Endotracheal Catheter Tip culture, read-out: minimum bactericidal concentration (MBC)): > 128 µg/mL | MIC ([3]; Example 5: isolate from Endotracheal Catheter Tip culture, read-out: minimum inhibitory concentration (MIC)): 32 µg/mL (≈ 96.6 µM) | MBC ([3]; Example 6: isolate from Endotracheal Catheter tip culture, read-out: minimum bactericidal concentration (MBC)): > 128 µg/mL | MIC ([3]; Example 6: isolate from Endotracheal Catheter tip culture, read-out: minimum inhibitory concentration (MIC)): 32 µg/mL (≈ 96.6 µM) | MBC ([3]; Example 7: isolate from endotracheal catheter tip culture, read-out: minimum bactericidal concentration (MBC)): > 128 µg/mL | MIC ([3]; Example 7: isolate from endotracheal catheter tip culture, read-out: minimum inhibitory concentration (MIC)): 32 µg/mL (≈ 96.6 µM) | MBC ([4]; read-out: MBC): > 128 µg/mL | MIC ([4]; read-out: MIC): 32 µg/mL (≈ 96.6 µM) | MBC [5]: > 128 µg/mL | MIC [5]: 32 µg/mL (≈ 96.6 µM) | bacterial growth in control tubes ([6]; Example 10 isolate): unhindered | bactericidal effect ([6]; Example 10 isolate): 80% | bacterial growth in control tubes ([6]; Example 11 isolate): unhindered | bactericidal effect ([6]; Example 11 isolate): 50% | bacterial growth in control tubes ([7]; Example 1 isolate): unhindered | bactericidal effect ([7]; Example 1 isolate): 100% | bacterial growth in control tubes ([7]; Example 2 isolate): unhindered | bactericidal effect ([7]; Example 2 isolate): 40% | killing ([8]; Example 3 strain, antibiotic at break point in combination with NE, uniform at 1000, 500, 250, 125 μg/ml): 99% | killing ([8]; Example 4 strain, antibiotic at break-even concentration with NE, uniform at all four NE concentrations): 90% | bacterial growth in control tubes ([8]; Example 5 isolate): unhindered | bactericidal effect ([8]; Example 5 isolate, antibiotic 4 μg/ml (break-even point) combined with NE 125, 250, 500, 1000 μg/ml): 90% | bacterial growth in control tubes ([8]; Example 6 isolate): unhindered | bactericidal effect ([8]; Example 6 isolate, antibiotic 4 μg/ml (break point) combined with NE 125, 250, 500, 1000 μg/ml): 80% | bacterial growth in control tubes ([8]; Example 7 isolate): unhindered | bactericidal effect ([8]; Example 7 isolate, antibiotic 4 μg/ml (break point) combined with NE 125, 250, 500, 1000 μg/ml): 50% | killing ([9]; antibiotic added to 1000 μg/ml NE): 50% | killing effect ([9]; antibiotic with 500 μg/ml NE): somewhat low | killing effect ([9]; antibiotic with NE at other concentrations (below 500 μg/ml)): not found | killing ([10]; antibiotic 4 μg/ml in combination with 250 μg/ml and 125 μg/ml NE): 80% | bactericidal effect ([10]; antibiotic 4 μg/ml with 1000 μg/ml, 500 μg/ml of NE): 20% | break point [11]: 4 µg/mL

CC[C@H]1OC(=O)[C@H](C)[C@@H](O[C@H]2C[C@@](C)(OC)[C@@H](O)[C@H](C)O2)[C@H](C)[C@@H](O[C@@H]2O[C@H](C)C[C@H](N(C)C)[C@H]2O)[C@](C)(O)C[C@@H](C)C(=O)[C@H](C)[C@@H](O)[C@]1(C)O [Erythromycin]
MBC [5]: > 256 µg/mL | MIC ([12]; Example 8: isolate from throat swab culture): 64 µg/mL (≈ 87.2 µM) | MIC ([12]; Example 9: isolate from sputum culture): 32 µg/mL (≈ 43.6 µM) | bacterial growth in control tubes ([13]; Example 8 isolate): unhindered | bactericidal effect ([13]; Example 8 isolate, antibiotic 4 μg/ml combined with NE 1000 μg/ml): 99% | bactericidal effect ([13]; Example 8 isolate, antibiotic 4 μg/ml combined with NE 125, 250 and 500 μg/ml): 100% | bacterial growth in control tubes ([13]; Example 9 isolate): unhindered | bactericidal effect ([13]; Example 9 isolate, antibiotic at break even point combined with NE 250 μg/ml and 125 μg/ml): 99% | killing ([13]; Example 9 isolate, antibiotic at break-even point combined with NE 500 μg/ml or 1000 μg/ml): 50% | clinical strains sensitized by NE to the antibiotic ([14]; 102 resistant S. aureus cultures, NE + antibiotic): 50% | Growth Patterns after addition of NE: no. of cultures +++ (growth) [14, 16]: 72 | Growth Patterns after addition of NE: no. of cultures −−− (inhibition of growth) [14, 16]: 30 | Growth Patterns after addition of NE: no. of cultures +++ (growth) [14, 17]: 66 | Growth Patterns after addition of NE: no. of cultures −−− (inhibition of growth) [14, 17]: 36 | Growth Patterns after addition of NE: no. of cultures +++ (growth) [14, 18]: 61 | Growth Patterns after addition of NE: no. of cultures −−− (inhibition of growth) [14, 18]: 41 | Growth Patterns after addition of NE: no. of cultures +++ (growth) [14, 19]: 51 | Growth Patterns after addition of NE: no. of cultures −−− (inhibition of growth) [14, 19]: 51 | break point [11]: 4 µg/mL

From patent US6599541B1, “Composition for treatment of drug resistant bacterial infections and a method of treating drug resistant bacterial infections” (priority 1999, dated 2003)
